Data: patent US20260250320A1, “LIPIDATED PEPTIDE INHIBITORS OF INTERLEUKIN-23 RECEPTOR” (Janssen Pharmaceutica NV, priority 2023, published 2026)
*1 amine or outer side, *2 acyl side, *3 side chain or, on linkers, in order; H or OH if unused. Where a SMILES comes first, the peptide text is derived from it. Bridges are numbered along the chain shown (N, C = ends). Side-chain parts run from the residue outwards. [ ]: non-standard residue; d: D form. The star is where a group is joined. X17 = O=C(O)CCCCCCCCCCCCCCCCCCC(=O)N[C@@H](CCC(=O)NCCOCCOCCOCCOCCOCCOCCOCCOCCOCCOCCOCCOCCOCC(=O)*)C(=O)O; X38 = O=C(O)CCCCCCCCCCCCCCCCC(=O)N[C@@H](CCC(=O)NCCOCCOCC(=O)NCCOCCCCC(=O)*)C(=O)O; X39 = O=C(O)CCCCCCCCCCCCCCCCC(=O)NC(CCC(=O)NCCCCCOCC(=O)*)C(=O)O; Me3N+(CH2)2O(CH2)2O(CH2)2CO = C[N+](C)(C)CCOCCOCCC(=O)*; Trp(7-Me) = Cc1cccc2c(C[C@H](N)C(=O)O)c[nH]c12; C18 diacid = O=C(O)CCCCCCCCCCCCCCCCC(=O)*; γGlu = O=C(O)[C@H](CCC(=O)[*:2])N[*:1]; 2Nal = N[C@@H](Cc1ccc2ccccc2c1)C(=O)O; AEF = NCCOc1ccc(C[C@H](N)C(=O)O)cc1; X2 = C[N+](C)(C)C[C@@H](CC(=O)O)N*; 3Pal = N[C@@H](Cc1cccnc1)C(=O)O; Lys(Me) = CNCCCC[C@H](N)C(=O)O; NMeK = CN[C@@H](CCCCN)C(=O)O; Pen = CC(C)(S)[C@H](N)C(=O)O; Suc = O=C(CCC(=O)[*:2])[*:1]; Thp = NC1(C(=O)O)CCOCC1; X1 = C[N+](C)(C)CCCCC*; AEEA = NCCOCCOCC(=O)O; Sar = CNCC(=O)O

Columns and labels:
IL-23R = molecular target: T1, IL-23R (Homo sapiens, UniProt Q5VWK5); test: IL23R Reporter Assay; assay type: cell-based; settings: HEK293 cells containing IL-23R, IL-12Rβ1 and STAT-inducible firefly luciferase reporter; 10 ng/mL IL-23 (EC90); 5 h
T1 construct: HEK293 cells containing IL-23R, IL-12Rβ1 and a firefly luciferase reporter gene driven by a STAT-inducible promoter (Promega); host or cells: HEK293
T1 sequence (Q5VWK5 24-629): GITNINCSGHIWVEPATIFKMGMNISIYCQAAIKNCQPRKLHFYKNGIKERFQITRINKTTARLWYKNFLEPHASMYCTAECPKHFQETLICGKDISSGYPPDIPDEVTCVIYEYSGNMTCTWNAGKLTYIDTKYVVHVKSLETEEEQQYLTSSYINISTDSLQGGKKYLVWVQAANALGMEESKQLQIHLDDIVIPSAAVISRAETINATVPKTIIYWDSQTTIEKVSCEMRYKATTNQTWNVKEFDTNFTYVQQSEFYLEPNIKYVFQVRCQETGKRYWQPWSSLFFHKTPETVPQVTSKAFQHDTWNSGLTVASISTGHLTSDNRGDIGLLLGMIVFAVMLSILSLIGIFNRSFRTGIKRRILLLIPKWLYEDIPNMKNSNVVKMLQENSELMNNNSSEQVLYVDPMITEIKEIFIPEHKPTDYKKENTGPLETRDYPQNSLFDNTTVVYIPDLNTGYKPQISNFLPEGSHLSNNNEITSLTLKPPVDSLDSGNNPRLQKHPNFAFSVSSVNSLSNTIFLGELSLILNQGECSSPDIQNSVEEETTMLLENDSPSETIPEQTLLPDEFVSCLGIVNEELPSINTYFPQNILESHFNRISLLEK
Procedure, shortened: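 HEK293 cells carrying IL-23R, IL-12Rβ1 and a STAT-driven firefly luciferase reporter (4000 cells/well) received compound, then 10 ng/mL IL-23 solution (EC90), and were incubated for 5 h at 37° C. BioGlo luminescence was normalised to IL-23 alone (0%) and 30 μM control inhibitor (100%). IC50 came from a 4-parameter Hill fit.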

[1] = tested on: IL-23-stimulated phosphorylated STAT3 in peripheral blood mononuclear cells (PBMCs); test: PBMC pSTAT3 Assay; assay type: cell-based; settings: PBMCs from healthy donors; 30 min preincubation with peptide; IL-23 5 ng/mL for 30 min; phospho-STAT3 by MSD
Procedure, shortened: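 Healthy-donor PBMCs expanded 4 days on anti-CD3 with 100 ng/mL IL-1β, starved ~4 h in RPMI-0.1% BSA, preincubated 30 min with peptide, then stimulated 30 min at 37 °C with 5 ng/mL IL-23. Lysate pSTAT3 measured by MSD phospho-STAT panel; IC50 derived.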

Row | IC50 (IL-23R) | SMILES | IC50 [1]
1 | 50 to 500 nM | CC(=O)NCCCC[C@@H]1NC(=O)[C@H](Cc2c[nH]c3c(C)cccc23)NC(=O)[C@H]([C@@H](C)O)NC(=O)[C@H](CC(N)=O)NC(=O)[C@@H](NC(=O)[C@@H](CCCNC(=N)N)NC(C)=O)C(C)(C)SSC(C)(C)[C@@H](C(=O)N[C@@H](Cc2ccc(OCCN)cc2)C(=O)N[C@@H](Cc2ccc3ccccc3c2)C(=O)NC2(C(=O)N[C@@H](CCCCNC(=O)CCC(=O)N[C@H](CC(=O)O)C[N+](C)(C)C)C(=O)N[C@@H](CC(N)=O)C(=O)N[C@@H](Cc3cccnc3)C(=O)N(C)[C@@H](CCCCNC(=O)COCCOCCNC(=O)COCCCCCNC(=O)CCC(NC(=O)CCCCCCCCCCCCCCCCC(=O)O)C(=O)O)C(N)=O)CCOCC2)NC1=O (some centres unmarked) [compound 41, MeCO-r-Pen(3)-N-T-7MeW-K(Ac)-Pen(3)-AEF-2Nal-THP-K(d)-N-3Pya-NMeK(PEG2PEG2gEC18OH)-CONH2] (Ac-[dR][Pen]NT[Trp(7-Me)]K(Ac)[Pen][AEF][2Nal][Thp]K([Suc-X2])N[3Pal][NMeK]([AEEA-X39])-NH2; disulfide 2-7) | < 0.5 nM
2 | ≥ 500 nM | CC(=O)N[C@@H](CCCCNC(=O)CCCCOCCNC(=O)COCCOCCNC(=O)CC[C@H](NC(=O)CCCCCCCCCCCCCCCCC(=O)O)C(=O)O)C(=O)N[C@@H]1C(=O)N[C@@H](CC(=O)N(C)C)C(=O)N[C@@H]([C@@H](C)O)C(=O)N[C@@H](Cc2c[nH]c3c(C)cccc23)C(=O)N[C@@H](CCCCN(C)C(C)=O)C(=O)N[C@H](C(=O)N[C@@H](Cc2ccc(OCCCCC[N+](C)(C)C)cc2)C(=O)N[C@@H](Cc2ccc3ccccc3c2)C(=O)NC2(C(=O)N[C@@H](CCCCN(C)C(C)=O)C(=O)N[C@@H](CC(N)=O)C(=O)N[C@@H](Cc3cccnc3)C(=O)N(C)CC(N)=O)CCOCC2)C(C)(C)SSC1(C)C [compound 63, MeCO-K(PEG2PEG2gEC18OH)-Pen(3)-N(N(Me)2)-T-7MeW-K(NMeAc)-Pen(3)-TMAPF-2Nal-THP-K(NMeAc)-N-3Pya-Sar-CONH2] (Ac-K(X38)[Pen]D(NMe2)T[Trp(7-Me)][Lys(Me)](Ac)[Pen]Y(X1)[2Nal][Thp][Lys(Me)](Ac)N[3Pal][Sar]-NH2; disulfide 2-7) | ≥ 5 nM
3 | < 50 nM | CC(=O)N(C)CCCC[C@@H]1NC(=O)[C@H](Cc2c[nH]c3c(C)cccc23)NC(=O)[C@H]([C@@H](C)O)NC(=O)[C@H](CC(=O)N(C)C)NC(=O)[C@@H](NC(=O)[C@@H](CCCCNC(=O)COCCOCCOCCOCCOCCOCCOCCOCCOCCOCCOCCOCCOCCNC(=O)CC[C@H](NC(=O)CCCCCCCCCCCCCCCCCCC(=O)O)C(=O)O)NC(=O)CCOCCOCC[N+](C)(C)C)C(C)(C)SSC(C)(C)[C@@H](C(=O)N[C@@H](Cc2ccc(OCCCCC[N+](C)(C)C)cc2)C(=O)N[C@@H](Cc2ccc3ccccc3c2)C(=O)NC2(C(=O)N[C@@H](CCCCN(C)C(C)=O)C(=O)N[C@@H](CC(N)=O)C(=O)N[C@@H](Cc3cccnc3)C(=O)N(C)CC(=O)N(C)C)CCOCC2)NC1=O [compound 130, cPEG3aCO-k(PEG12gEC20OH)-Pen(3)-N(N(Me)2)-T-7MeW-K(NMeAc)-Pen(3)-TMAPF-2Nal-THP-K(NMeAc)-N-3Pya-Sar-CON(Me)2] ({Me3N+(CH2)2O(CH2)2O(CH2)2CO}-[dK](X17)[Pen]D(NMe2)T[Trp(7-Me)][Lys(Me)](Ac)[Pen]Y(X1)[2Nal][Thp][Lys(Me)](Ac)N[3Pal][Sar]-NMe2; disulfide 2-7) | < 0.5 nM
4 | < 50 nM | Cc1cccc2c(C[C@@H]3NC(=O)[C@H]([C@@H](C)O)NC(=O)[C@H](CC(N)=O)NC(=O)[C@@H](NC(=O)[C@@H](CCCNC(=N)N)NC(=O)COCCOCCNC(=O)COCCOCCNC(=O)CC[C@H](NC(=O)CCCCCCCCCCCCCCCCC(=O)O)C(=O)O)C(C)(C)SSC(C)(C)[C@@H](C(=O)N[C@@H](Cc4ccc(OCCN)cc4)C(=O)N[C@@H](Cc4ccc5ccccc5c4)C(=O)NC4(C(=O)N[C@@H](CCC(=O)O)C(=O)N[C@@H](CC(N)=O)C(=O)N[C@@H](Cc5cccnc5)C(=O)N(C)CC(N)=O)CCOCC4)NC(=O)[C@H](CCCCNC(=O)CCC(=O)N[C@H](CC(=O)O)C[N+](C)(C)C)NC3=O)c[nH]c12 [compound 46, HOC18gEPEG2PEG2CO-r-Pen(3)-N-T-7MeW-K(d)-Pen(3)-AEF-2Nal-THP-E-N-3Pya-Sar-CONH2] ({C18 diacid-γGlu-AEEA-AEEA}-[dR][Pen]NT[Trp(7-Me)]K([Suc-X2])[Pen][AEF][2Nal][Thp]EN[3Pal][Sar]-NH2; disulfide 2-7) | < 0.5 nM
